Several values for one entry are separate records, joined by “and”; a condition that tells them apart may be missing. Equal entries are not always repeated.
Target: Transient receptor potential cation channel subfamily A member 1 (Homo sapiens, UniProt O75762)
Experiment: Antagonist activity at human TRPA1 expressed in HEK293 cells assessed as inhibition of CA-induced increase in calcium influx incubated for 10 mins prior to CA addition by Fluo-4-AM dye based fluorescence assayy

Chain of Transient receptor potential cation channel subfamily A member 1 (O75762 whole entry): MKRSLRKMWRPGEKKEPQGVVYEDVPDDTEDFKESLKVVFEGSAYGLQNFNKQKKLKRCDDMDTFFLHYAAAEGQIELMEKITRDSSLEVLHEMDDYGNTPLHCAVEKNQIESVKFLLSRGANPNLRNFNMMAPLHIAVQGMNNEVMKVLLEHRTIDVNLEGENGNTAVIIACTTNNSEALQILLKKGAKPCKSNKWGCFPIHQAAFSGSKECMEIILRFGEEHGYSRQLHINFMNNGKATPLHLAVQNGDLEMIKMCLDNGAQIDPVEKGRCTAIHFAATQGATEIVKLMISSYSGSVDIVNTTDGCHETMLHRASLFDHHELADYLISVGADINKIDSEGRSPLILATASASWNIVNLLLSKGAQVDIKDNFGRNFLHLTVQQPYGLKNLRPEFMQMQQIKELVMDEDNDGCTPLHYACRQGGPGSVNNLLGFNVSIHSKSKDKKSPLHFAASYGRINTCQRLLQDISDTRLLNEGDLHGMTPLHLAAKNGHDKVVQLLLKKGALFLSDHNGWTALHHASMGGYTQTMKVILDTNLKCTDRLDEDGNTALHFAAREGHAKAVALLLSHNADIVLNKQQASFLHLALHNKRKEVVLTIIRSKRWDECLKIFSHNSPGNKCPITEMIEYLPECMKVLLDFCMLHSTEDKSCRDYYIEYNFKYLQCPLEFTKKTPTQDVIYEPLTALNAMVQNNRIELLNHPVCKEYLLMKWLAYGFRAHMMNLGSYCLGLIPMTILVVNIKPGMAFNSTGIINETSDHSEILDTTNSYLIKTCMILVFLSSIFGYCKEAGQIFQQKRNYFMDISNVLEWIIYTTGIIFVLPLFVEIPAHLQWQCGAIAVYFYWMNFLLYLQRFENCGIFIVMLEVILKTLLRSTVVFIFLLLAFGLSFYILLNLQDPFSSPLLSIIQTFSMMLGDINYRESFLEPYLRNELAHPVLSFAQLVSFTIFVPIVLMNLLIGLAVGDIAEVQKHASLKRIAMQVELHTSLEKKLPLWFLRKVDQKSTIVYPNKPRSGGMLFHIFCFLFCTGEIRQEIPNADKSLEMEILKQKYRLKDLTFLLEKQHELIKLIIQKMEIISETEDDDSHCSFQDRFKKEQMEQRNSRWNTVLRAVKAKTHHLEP

| SMILES | IC50 |
| --- | --- |
| O=C(/C=C/c1ccc(Br)cc1)Nc1ccccc1C(=O)O | 10 µM |
| CC(=Cc1ccc(Cl)cc1)C(C)N=O (configuration not stated) [4-(4-chlorophenyl)-3-methylbut-3-en-2-one oxime] | 4.47 µM and 4.46 µM |

Reference: BindingDB's records for doi:10.1016/j.ejmech.2019.02.074 (University of Hull, 2019)
